Where “and” joins values, the source holds several entries; their conditions need not be identical. Equal values may be shown once.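 Tested at 5 concentrations; 48 h exposure; 96-well plates; endpoints linearly interpolated, else capped at highest concentration. Abbreviation: GI50, concentration required for 50% inhibition of growth. The concentration for full growth arrest is given as TGI.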
Experiments:
Assay in all cases: NCI anticancer screen, dose series, 48 h
K-562 leukemia = test system: K-562 leukemia
OVCAR-4 ovarian = test system: OVCAR-4 ovarian
CCRF-CEM leukemia = test system: CCRF-CEM leukemia
SK-MEL-2 melanoma = test system: SK-MEL-2 melanoma
TK-10 renal = test system: TK-10 renal
A549 NSCLC = test system: A549 NSCLC
UO-31 renal = test system: UO-31 renal
NCI-H460 lung = test system: NCI-H460 lung
HCC-2998 colon = test system: HCC-2998 colon
SF-268 CNS = test system: SF-268 CNS
SF-539 CNS = test system: SF-539 CNS
MDA-MB-435 = test system: MDA-MB-435
U251 CNS = test system: U251 CNS
SN12C renal = test system: SN12C renal
KM12 colon = test system: KM12 colon
SR leukemia = test system: SR leukemia
NCI/ADR-RES ovarian = test system: NCI/ADR-RES ovarian
CAKI-1 renal = test system: CAKI-1 renal
SW-620 colon = test system: SW-620 colon
HCT-15 colon = test system: HCT-15 colon
SK-MEL-5 melanoma = test system: SK-MEL-5 melanoma
MCF7 breast = test system: MCF7 breast
SNB-19 CNS = test system: SNB-19 CNS
BT-549 breast = test system: BT-549 breast
COLO 205 colon = test system: COLO 205 colon
HS 578T breast = test system: HS 578T breast
DU-145 prostate = test system: DU-145 prostate
PC-3 prostate = test system: PC-3 prostate

CO/N=C/C=C\C(=O)N/C=C/C[C@H]1/C=C/[C@H](O)/C=C\C=C\c2cccc(O)c2C(=O)O1
GI50 (K-562 leukemia): 27.5 nM and 35.8 nM
TGI (K-562 leukemia): > 100000 nM
GI50 (OVCAR-4 ovarian): 17300 nM and 2740 nM
TGI (OVCAR-4 ovarian): > 100000 nM
GI50 (CCRF-CEM leukemia): 62.1 nM and 62.2 nM
TGI (CCRF-CEM leukemia): > 77000 nM
GI50 (SK-MEL-2 melanoma): 118 nM and 138 nM
TGI (SK-MEL-2 melanoma): 1060 nM and 1760 nM
TGI (TK-10 renal): 45100 nM and > 100000 nM
GI50 (A549 NSCLC): 111 nM and 82.2 nM
TGI (A549 NSCLC): > 100000 nM
GI50 (UO-31 renal): 61 nM and 92.5 nM
TGI (UO-31 renal): 455 nM and 1230 nM
GI50 (NCI-H460 lung): 36.4 nM and 58.3 nM
TGI (NCI-H460 lung): 11100 nM and 5340 nM
GI50 (HCC-2998 colon): 430 nM and 208 nM
TGI (HCC-2998 colon): 31000 nM and 7540 nM
GI50 (SF-268 CNS): 204 nM and 137 nM
TGI (SF-268 CNS): > 100000 nM and 33800 nM
GI50 (SF-539 CNS): 46 nM and 51.4 nM
TGI (SF-539 CNS): 4200 nM and 1830 nM
GI50 (MDA-MB-435): 36.8 nM and 37 nM
TGI (MDA-MB-435): 1960 nM and 482 nM
GI50 (U251 CNS): 100 nM and 28.7 nM
TGI (U251 CNS): 62100 nM and 14700 nM
GI50 (SN12C renal): < 17.6 nM and 16.5 nM
TGI (SN12C renal): > 72900 nM
GI50 (KM12 colon): 40.7 nM and 52 nM
TGI (KM12 colon): 17200 nM and 15100 nM
GI50 (SR leukemia): < 10 nM
TGI (SR leukemia): 13800 nM and > 100000 nM
GI50 (NCI/ADR-RES ovarian): 139 nM and 77.1 nM
TGI (NCI/ADR-RES ovarian): > 100000 nM
GI50 (CAKI-1 renal): < 10 nM
GI50 (SW-620 colon): 43.3 nM and 62.8 nM
TGI (SW-620 colon): 12400 nM and 11300 nM
GI50 (HCT-15 colon): 62.4 nM and 44.7 nM
TGI (HCT-15 colon): 9700 nM and 7340 nM
GI50 (SK-MEL-5 melanoma): < 10 nM
TGI (SK-MEL-5 melanoma): < 11.3 nM and 20.4 nM
GI50 (MCF7 breast): 99.7 nM and 58.1 nM
TGI (MCF7 breast): > 100000 nM and 26700 nM
GI50 (SNB-19 CNS): 2810 nM and 3470 nM
TGI (SNB-19 CNS): > 100000 nM
GI50 (BT-549 breast): < 19.7 nM and 24.7 nM
TGI (BT-549 breast): 5960 nM and 32900 nM
GI50 (COLO 205 colon): 26.6 nM and 32.6 nM
TGI (COLO 205 colon): 16000 nM and 14100 nM
GI50 (HS 578T breast): 454 nM and 199 nM
TGI (HS 578T breast): > 100000 nM
GI50 (DU-145 prostate): 81.6 nM and 41.3 nM
TGI (DU-145 prostate): > 54000 nM and 22900 nM
GI50 (PC-3 prostate): 94.6 nM and 47.7 nM
TGI (PC-3 prostate): 81400 nM and > 54900 nM
